Results taken from article PMC2724550, “Citrus auraptene suppresses cyclin D1 and significantly delays N-methyl nitrosourea induced mammary carcinogenesis in female Sprague-Dawley rats” (BMC Cancer, 2009).

Assays:
[1] = test system: eukaryotic Initiation Factor 4E (eIF4E); assay: Western blot of eIF4E expression in rat mammary tumors; format: in vivo, female Sprague-Dawley rats; details: dietary auraptene, data not shown
Method: The mammary tumors from the female Sprague-Dawley rats were analyzed for cyclin D1 expression and eukaryotic Initiation Factor 4E (eIF4E) as previously described. Briefly, samples were first homogenized in RIPA buffer [50 mM Tris-HCL (pH 7.4), 1% Triton-X, 150 mM NaCl, 1 mM EDTA, 1 mM sodium orthovanadate, 1 mM PMSF, 1 μg of aprotinin, leupeptin and pepstatin and 1 mM sodium fluoride]. The proteins were measured by Bradford method (using BSA as a standard), followed by the addition of 2 × sample buffer [0.125 M Tris, 10% (w/v) SDS, 40% (v/v) glycerol, 0.04% (w/v) bromophenol blue, and 80 mM dithiothreitol]. Samples were heated to 95°C for 5 min, and 10 μg of protein/well was loaded and resolved. The proteins were then transferred and detected for cyclin D1 expression as mentioned above. Lysate from MCF-7 cells treated with IGF-1 was used as positive control for cyclin D1.

[2] = parameters: method as in PMID 18444171; details: male Sprague-Dawley rats, cited from earlier work
[3] = Rat body weight and gross behavior in the tumor study; format: in vivo, female Sprague-Dawley rats
Description: Rats (28 days of age) were divided up randomly into groups of 24–26 each and were handled daily to get them accustomed to human touch. At 42 days of age the rats were shifted to the test diet. Control group and MNU only group were fed with Teklad (powdered diet) only. MNU/Auraptene 200 ppm group and MNU/Auraptene 500 ppm group received 200 ppm and 500 ppm of auraptene respectively, mixed in the diet for the duration of the study. The doses were selected from the pilot study conducted with a small number of animals. In addition to the 200 ppm dose of auraptene, which indicated the chemopreventive effect of auraptene, a higher dose of auraptene at 500 ppm was added to this study to see any increased chemopreventive effects. Auraptene has been administered in diet at 100 ppm and 500 ppm in other models of cancer. The diet was prepared once a week and stored in cold room. The food was replaced on Monday, Wednesday and Friday or as needed. […] At 50 days of age all the groups except the control group received intraperitoneal MNU injection (50 mg/kg bw in sterile acidified saline). The control group received vehicle only. […] Any tumors felt during palpation were recorded by location. […]
The rat body weight data was compared between groups by One-Way ANOVA followed by Tukey test. […] The cell proliferation assays and western blot data were analyzed by One-Way ANOVA followed by Tukey test.

cyclin D1 = assay: Western blot of IGF-1 induced cyclin D1 expression in MCF-7 cells; format: cell-based, human; details: 10 μM auraptene, 2 h pretreatment, 8 h after IGF-1, MCF-7 cells
Method: To study the effect of auraptene on the expression on cyclin D1, MCF-7 cells were plated in eight 12-well plates at 1.5 × 10^4 cells/well. The cells were incubated at 37°C till the next day in media with serum. The cells were serum starved for synchronization in serum free media for the next 24 h. At 22 h of serum starvation, the cells except in DMSO only and IGF-1 only groups, were treated with 10 μM auraptene in DMSO. At 24 h of serum starvation, the cells except in DMSO group were treated with 10 ng/mL of IGF-1. The cells were harvested at 5,15 and 30 minutes and at 1 h, 2 h, 4 h, 8 h and 24 h after IGF-1 treatment by directly adding boiling Laemmeli buffer. The cyclin D1 expression was then analyzed by western blot. In short, equal volumes (15 μL) of the sample in Laemmeli buffer was loaded into each well and resolved. The separated proteins were then electroblotted on a 0.45 μm pore size PVDF membrane (Immobilon-P, Millipore, Billerica, MA). After the protein transfer the membrane was placed in Millipore SNAP id Protein Detection System. […] The band intensity was evaluated using the Image-J software. […]
Figure 2 Effects of auraptene on human breast carcinoma cells. […] Cell proliferation was assessed using the MTT reagent. […] Cell proliferation was assessed using the MTS reagent. […]

[4] = 500 μmol/kg bw p.o. gavage, 1–4 h

For `CC(C)=CCC/C(C)=C/COc1ccc2ccc(=O)oc2c1` [auraptene], the “eIF4E protein expression in rat mammary tumors” value [1] is listed as “no significant change”, the “concentration in large intestine” value [2, 4] is listed as at most 20 nmol/g and the “concentration in small intestine” value [2, 4] is listed as at most 100 nmol/g. For the same molecule, the concentration in stomach [2, 4] was ~ 2000 nmol/g, the hepatic concentration ([2]; within 1–4 h of oral administration) was ~ 25 μm and the “effect on rat body weight” value ([3]; 200 and 500 ppm in diet, MNU treated groups) was “did not significantly affect body weight”. For the same molecule, the tolerability in rats ([3]; dietary auraptene up to 500 ppm, no observable change in gross behavior, no significant weight loss) was “well tolerated” and the “IGF-1 induced cyclin D1 expression” value (cyclin D1) was “nearly a total loss of IGF-1 induced cyclin D1 expression”.
